{"source": "patent US20250296973A1", "about": "“TREATMENT METHOD USING MAZDUTIDE” (Innovent Biologics (Suzhou) Co., Ltd., priority 2022, published 2025)", "key": {"[1]": {"experiment": "Clinical trial of mazdutide dosing regimen (Example 1, 5 cohorts, overweight or obese subjects)", "type": "in vivo, human", "conditions": "for least squares mean of percent change from baseline in body weight: sc once weekly, after 12 weeks", "description": "The contents in the vial were reconstituted in sterile water for injection to give a clear solution of mazdutide.\n• 1. Aged 18-75 years (inclusive), male or female. • 2. For obesity, BMI≥28.0 kg/m^2; for overweight, 24≤BMI<28.0 kg/m^2 with at least one of the following: i, increased appetite, intolerable hunger before meals, and increased food consumption; ii, comorbidity with one or more of pre-diabetes (impaired fasting glucose and/or impaired glucose tolerance), hypertension, dyslipidemia, and fatty liver (within 6 months before the screening); iii, comorbidity with weight-bearing joint pain; iv, obesity-related dyspnea or obstructive sleep apnea syndrome. • 3. Weight change <5% after at least 12 weeks of diet/exercise weight control alone at the time of screening.\n• 1. Use of any of the following drugs or treatments before the screening: • 1) previous use of either GLP-1 receptor (GLP-1R) agonists or GLP-1R/GCGR agonists; • 2) use of drugs that may have an effect on body weight within 3 months before the screening, including: systemic steroid hormone therapy (intravenous, oral, or intraarticular administration), metformin, SGLT2 inhibitors, thiazolidinediones (TZD), tricyclic antidepressants, psychotropic agents, or sedatives (e.g., imipramine, amitriptyline, mirtazapine, paroxetine, phenelzine, chlorpromazine, thioridazine, clozapine, olanzapine, valproic acid, valproic acid derivatives, and lithium salts), and the like; • 3) use of Chinese herbal medicines or health care products that may have an effect on body weight within 3 months before the screening; • 4) previous or current use of weight-loss drugs within 3 months before the screening, such as: sibutramine hydrochloride, orlistat, phentermine, phenylpropanolamine, mazindol, phentermine, amfepramone, lorcaserin, compounded phentermine/topiramate, compounded […], etc.; • 5) participation in other clinical trials (reception of the test drug treatment) within 3 months before the screening. • 2. […] Alcohol abuse is defined as: over 21 units for men or over 14 units for women weekly on average, or unwillingness to cease drinking within 24 hours before dosing and throughout the study period (one unit=360 mL of beer, or 150 mL of wine, or 45 mL of distilled spirits); • 21) drug abuse and positivity in a urine test for drugs at the time of screening. • 3. Any one of the laboratory tests meets the following criteria (those of proper reasons at the time of screening can be re-examined within one week, and the reason for retesting should be documented by the investigator): • 1) serum calcitonin ≥15 ng/L at the time of screening; • 2) at the time of screening, alanine aminotransferase ≥2.0×ULN and/or aspartate aminotransferase ≥2.0×ULN and/or total bilirubin ≥1.0×ULN and/or alkaline phosphatase ≥2.0×ULN; • 3) glomerular filtration rate eGFR<60 mL/min/1.73 m^2 at the time of screening, as estimated using the CKD-EPI equation; • 4) abnormal thyroid function (FT3, FT4, or TSH) at the time of screening; • 5) fasting triglyceride >5.64 mmol/L (500 mg/dL) at the time of screening: if the patient is receiving a lipid-regulating treatment, the dose of the treatment must be stable for 30 days before the screening; • 6) blood amylase or lipase >2.0×ULN at the time of screening; • 7) an international normalized ratio (INR) of prothrombin time greater than the upper limit of the normal range at the time of screening. • 4. Heart rate <50 beats/min or >90 beats/min as measured by 12-lead electrocardiogram (ECG) at the time of screening. • 5. Clinically significant abnormality in 12-lead ECG at the time of screening: atrioventricular block degree II or degree III, long QT syndrome or QTcF>450 ms (see Attachment 3 for the formula), PR interval <120 ms or PR interval >220 ms, QRS>120 ms, left or right bundle branch block, pre-excitation syndrome or severe arrhythmia requiring treatment in the absence of cardiac pacemaker. • 6. […]"}, "[2]": {"conditions": "3.0-6.0-9.0 mg QW sc, after 24 consecutive weeks"}}, "note": "Starred links: 1 amine or outer side, 2 acyl side, 3 side chain; linkers in the order of their positions; H or OH if unused. Non-standard residues stand in square brackets, D forms with d. Groups on a side chain read outwards from the residue. No end group written: not given here. *: point of attachment. C20 diacid = O=C(O)CCCCCCCCCCCCCCCCCCC(=O)*; γGlu = O=C(O)[C@H](CCC(=O)[*:2])N[*:1]; AEEA = NCCOCCOCC(=O)O; Aib = CC(C)(N)C(=O)O", "data": [{"substance": "mazdutide (H[Aib]QGTFTSDYSKYLDEKKAK([AEEA-AEEA-γGlu-C20 diacid])EFVEWLLEGGGPSSG-NH2; N-terminus assumed; SMILES CC(C)C[C@H](NC(=O)[C@H](CC(C)C)NC(=O)[C@H](Cc1c[nH]c2ccccc12)NC(=O)[C@H](CCC(=O)O)NC(=O)[C@@H](NC(=O)[C@H](Cc1ccccc1)NC(=O)[C@H](CCC(=O)O)NC(=O)[C@H](CCCCNC(=O)COCCOCCNC(=O)COCCOCCNC(=O)CC[C@H](NC(=O)CCCCCCCCCCCCCCCCCCC(=O)O)C(=O)O)NC(=O)[C@H](C)NC(=O)[C@H](CCCCN)NC(=O)[C@H](CCCCN)NC(=O)[C@H](CCC(=O)O)NC(=O)[C@H](CC(=O)O)NC(=O)[C@H](CC(C)C)NC(=O)[C@H](Cc1ccc(O)cc1)NC(=O)[C@H](CCCCN)NC(=O)[C@H](CO)NC(=O)[C@H](Cc1ccc(O)cc1)NC(=O)[C@H](CC(=O)O)NC(=O)[C@H](CO)NC(=O)[C@@H](NC(=O)[C@H](Cc1ccccc1)NC(=O)[C@@H](NC(=O)CNC(=O)[C@H](CCC(N)=O)NC(=O)C(C)(C)NC(=O)[C@@H](N)Cc1c[nH]cn1)[C@@H](C)O)[C@@H](C)O)C(C)C)C(=O)N[C@@H](CCC(=O)O)C(=O)NCC(=O)NCC(=O)NCC(=O)N1CCC[C@H]1C(=O)N[C@@H](CO)C(=O)N[C@@H](CO)C(=O)NCC(N)=O)", "values": [{"measurement": "subjects with body weight reduced by at least 5% from baseline", "setting": "[2]", "result": 81.7, "unit": "%"}, {"measurement": "subjects with body weight reduced by at least 10% from baseline", "setting": "[2]", "result": 65.0, "unit": "%"}, {"measurement": "subjects with body weight reduced by at least 15% from baseline", "setting": "[2]", "result": 31.7, "unit": "%"}, {"measurement": "subjects with body weight reduced by at least 20% from baseline", "setting": "[2]", "result": 21.7, "unit": "%"}, {"measurement": "dropout rate of the treatment group", "setting": "human, in vivo", "result": "lower than that of the placebo group overall"}, {"measurement": "early termination of treatment due to adverse events", "setting": "human, in vivo", "result": "no subject in the treatment group has terminated treatment in advance due to adverse events"}, {"measurement": "most common treatment emergent adverse events", "setting": "human, in vivo", "result": "gastrointestinal-related adverse events"}, {"measurement": "serious adverse events", "setting": "human, in vivo", "result": "no serious adverse event has occurred"}, {"measurement": "TEAEs resulting in permanent drug withdrawal", "setting": "[1]; all 5 cohorts", "result": "no TEAEs resulting in permanent drug withdrawal occurred"}, {"measurement": "severe TEAEs", "setting": "[1]; all 5 cohorts", "result": "no severe TEAEs were reported"}, {"measurement": "severe hypoglycemic events", "setting": "[1]; all 5 cohorts", "result": "no severe hypoglycemic events occurred"}, {"measurement": "severity of treatment emergent adverse events (TEAEs)", "setting": "[1]; all 5 cohorts", "result": "Most treatment emergent adverse events (TEAEs) were mild"}, {"measurement": "treatment emergent serious adverse events (TESAEs)", "setting": "[1]; all 5 cohorts", "result": "no treatment emergent serious adverse events (TESAEs) occurred"}, {"measurement": "least squares mean of percent change from baseline in body weight", "setting": "[1]; cohort 2: 1.5 mg 4 wk + 3.0 mg 4 wk + 4.5 mg 4 wk", "result": "−6.40", "unit": "%"}, {"measurement": "least squares mean of percent change from baseline in body weight", "setting": "[1]; cohort 3: 2.0 mg 4 wk + 4.0 mg 4 wk + 6.0 mg 4 wk", "result": "−6.05", "unit": "%"}, {"measurement": "least squares mean of percent change from baseline in body weight", "setting": "[1]; cohort 5: 3.0 mg 4 wk + 6.0 mg 4 wk + 9.0 mg 4 wk", "result": "−11.7", "unit": "%"}, {"measurement": "weight loss effect at week 12 in indirect comparison with similar drugs", "setting": "[1]; cohort 5 regimen vs 2.4 mg Semaglutide and 10 mg or 15 mg Tirzepatide regimens, FIG. 6", "result": "particularly pronounced weight loss effect"}, {"measurement": "improvement of blood pressure, blood lipid and serum uric acid levels", "setting": "[1]; different doses in 5 cohorts, FIGS. 3-5 for cohorts 4 and 5", "result": "good beneficial effects"}]}]}
